Laboratory results: patent US20220267380A1, “Glycopeptides Increasing Lipid Synthesis” (TFCHEM, priority 2019, published 2022)

Test system: normal human dermal fibroblasts (NHDF)
Assay: Gene expression in NHDF, full transcriptome analysis with Affymetrix U219 microarray
Type: cell-based
Settings: NHDF
Procedure: In the present study, the transcriptional effects (modulation of gene expression) of compounds 1, 2, 3 and 4 were evaluated on normal human dermal fibroblasts (NHDF) under basal conditions.
More specifically, the comparative analysis of the different transcriptomic profiles was performed using an Affymetrix GeneAtlas platform and the human “full transcriptome” U219 chip, which includes 36,000 transcripts and variants.
Fibroblasts were seeded in 24-well plates and cultured in culture medium for 24 hours. The medium was then replaced by assay medium and cells were incubated for further 24 hours. The medium was replaced by assay medium containing or not (control) the test compounds at different concentrations and the cells were preincubated for 24 hours. All experimental conditions were performed in triplicate. At the end of incubation, the culture supernatants were removed and the cells were washed in a phosphate buffered saline (PBS) solution and immediately frozen at −80° C.
Before RNA extraction, the replicates were pooled. Total RNA was extracted from each sample using TriPure Isolation Reagent® according to the supplier's instructions. The amount and quality of total RNA were evaluated for all samples using capillary electrophoresis (Bioanalyzer 2100, Agilent technologies). From each RNA, a labeled and amplified anti-sens RNA (aRNA) was obtained using GeneChip 3′IVT PLUS Kit (Affymetrix). For each labeled and amplified aRNA sample the profiles were evaluated before and after fragmentation using capillary electrophoresis (Bioanalyzer 2100, Agilent technologies). Hybridization of fragmented aRNA onto Affymetrix® U219 chip (36,000 transcripts and variants) was performed in the GeneAtlas™ fluidics Affymetrix® hybridization station for 20 hours at 45° C. U219 chip was analyzed using the GeneAtlas™ Imaging station (Affymetrix®—resolution 2 μm) to generate fluorescence intensity data.
Expression Console and Quality controls: data were normalized with the Expression Console (Affymetrix®) software using RMA algorithm. Then a quality control of the labeling and the hybridization was performed. Hybridization and labeling steps successfully passed the quality controls for these experiments.
Data reduction, Excel file description: once normalized with Expression Console, data were transferred into a Microsoft Excel® file in order to go further into data reduction.
Calculation and tools were added in order to rank and sort data, and finally to support data interpretation. Detection thresholds in terms of fold change were defined and applied on normalized data.
Results are considered and presented or commented per gene (and not probe). A probe set is a collection of probes designed to interrogate a given sequence of a gene. For data interpretation, the most important relative expression value obtained with one probe is considered to be representative of the corresponding gene. The file contains the following data: • Relative expression (RE) for each sample, • Fold change calculation, • Gene information.

[1] = relative expression adjusted to detection limit (<20), 10 mg/ml, 24 h

`C[C@H](NC(=O)[C@H](C)NC(=O)[C@@H](N)CCCCNCC(F)(F)[C@]1(O)O[C@H](CO)[C@H](O)[C@H](O)[C@H]1O)C(=O)O` [Compound 1] was tested, and the “effect of treatment of NHDF on lipid synthesis (transcriptional)” value was “up regulation of lipid and cholesterol synthesis”, the “Fold change, ABCA1” value (10 mg/ml, 24 h, vs control) was 2.11 and the “Fold change, ABHD4” value (10 mg/ml, 24 h, vs control) was 2.05. The “Fold change, ABHD5” value (10 mg/ml, 24 h, vs control) was 2.63, the “Fold change, ACAT2” value (10 mg/ml, 24 h, vs control) was 2.12 and the “Fold change, AKR1C1” value (10 mg/ml, 24 h, vs control) was 2.13. For the same compound, the “Fold change, AKR1C2” value (10 mg/ml, 24 h, vs control) was 2.60, the “Fold change, CH25H” value (10 mg/ml, 24 h, vs control) was 0.36 and the “Fold change, CYP51A1///LRRD1” value (10 mg/ml, 24 h, vs control) was 2.20. For the same compound, the “Fold change, DHCR7” value (10 mg/ml, 24 h, vs control) was 3.68, the “Fold change, HMGCR” value (10 mg/ml, 24 h, vs control) was 2.02 and the “Fold change, HSD17B7” value (10 mg/ml, 24 h, vs control) was 2.44. The “Fold change, HSD17B14” value (10 mg/ml, 24 h, vs control) was 2.00, the “Fold change, IDI1” value (10 mg/ml, 24 h, vs control) was 2.01 and the “Fold change, LPIN1” value (10 mg/ml, 24 h, vs control) was 2.46. The “Fold change, LRP8” value (10 mg/ml, 24 h, vs control) was 2.95, the “Fold change, MSMO1” value (10 mg/ml, 24 h, vs control) was 2.03 and the “Fold change, MVD” value (10 mg/ml, 24 h, vs control) was 2.45. The “Fold change, NEU1” value (10 mg/ml, 24 h, vs control) was 2.74, the “Fold change, PCYT2” value (10 mg/ml, 24 h, vs control) was 2.41 and the “Fold change, PLD1” value (10 mg/ml, 24 h, vs control) was 2.15. The “Fold change, PTPLA” value (10 mg/ml, 24 h, vs control) was 2.31, the “Fold change, SOAT1” value (10 mg/ml, 24 h, vs control) was 2.01 and the “Fold change, SREBF1” value (10 mg/ml, 24 h, vs control) was 3.24. For the same compound, the “Fold change, DHCR24” value (10 mg/ml, 24 h, vs control, probe set 11715460_a_at) was 2.05, the “Fold change, POR” value (10 mg/ml, 24 h, vs control, probe set 11716114_x_at) was 2.20 and the “Fold change, INSIG1” value (10 mg/ml, 24 h, vs control, probe set 11716337_s_at) was 2.46. For the same compound, the “Fold change, INSIG1” value (10 mg/ml, 24 h, vs control, probe set 11716338_a_at) was 3.42, the “Fold change, INSIG1” value (10 mg/ml, 24 h, vs control, probe set 11716339_a_at) was 3.38 and the “Fold change, HMGCS1” value (10 mg/ml, 24 h, vs control, probe set 11716987_a_at) was 3.15. The “Fold change, APOD” value (10 mg/ml, 24 h, vs control, probe set 11717295_s_at) was 0.30, the “Fold change, LSS” value (10 mg/ml, 24 h, vs control, probe set 11717620_a_at) was 2.08 and the “Fold change, EBP” value (10 mg/ml, 24 h, vs control, probe set 11717859_a_at) was 2.68. For the same compound, the “Fold change, FDPS” value (10 mg/ml, 24 h, vs control, probe set 11718366_s_at) was 2.02, the “Fold change, MVK” value (10 mg/ml, 24 h, vs control, probe set 11719098_a_at) was 2.08 and the “Fold change, GBA///GBAP1” value (10 mg/ml, 24 h, vs control, probe set 11719908_a_at) was 2.93. For the same compound, the “Fold change, LDLR” value (10 mg/ml, 24 h, vs control, probe set 11720028_x_at) was 2.53, the “Fold change, LDLR” value (10 mg/ml, 24 h, vs control, probe set 11720029_a_at) was 2.11 and the “Fold change, PTGS1” value (10 mg/ml, 24 h, vs control, probe set 11722208_a_at) was 2.77. For the same compound, the “Fold change, PTGS1” value (10 mg/ml, 24 h, vs control, probe set 11722209_a_at) was 2.62, the “Fold change, PTGS1” value (10 mg/ml, 24 h, vs control, probe set 11722210_a_at) was 3.14 and the “Fold change, LSS” value (10 mg/ml, 24 h, vs control, probe set 11724199_x_at) was 2.21. For the same compound, the “Fold change, PGS1” value (10 mg/ml, 24 h, vs control, probe set 11724792_a_at) was 2.01, the “Fold change, KDSR” value (10 mg/ml, 24 h, vs control, probe set 11730180_s_at) was 2.16 and the “Fold change, KDSR” value (10 mg/ml, 24 h, vs control, probe set 11730181_s_at) was 2.29. For the same compound, the “Fold change, LSS” value (10 mg/ml, 24 h, vs control, probe set 11731324_a_at) was 2.53, the “Fold change, GBA” value (10 mg/ml, 24 h, vs control, probe set 11736100_a_at) was 2.74 and the “Fold change, CHKA” value (10 mg/ml, 24 h, vs control, probe set 11736285_a_at) was 2.27. For the same compound, the “Fold change, CHKA” value (10 mg/ml, 24 h, vs control, probe set 11736286_a_at) was 3.00, the “Fold change, PHLDB2” value (10 mg/ml, 24 h, vs control, probe set 11737039_a_at) was 2.96 and the “Fold change, PHLDB2” value (10 mg/ml, 24 h, vs control, probe set 11737041_a_at) was 2.45. The “Fold change, PHLDB2” value (10 mg/ml, 24 h, vs control, probe set 11737042_s_at) was 2.97, the “Fold change, PHLDB2” value (10 mg/ml, 24 h, vs control, probe set 11737043_x_at) was 2.47 and the “Fold change, NPC1” value (10 mg/ml, 24 h, vs control, probe set 11743916_a_at) was 6.53. For the same compound, the “Fold change, FADS2” value (10 mg/ml, 24 h, vs control, probe set 11744899_a_at) was 2.64, the “Fold change, FADS2” value (10 mg/ml, 24 h, vs control, probe set 11744902_a_at) was 2.09 and the “Fold change, FADS1///MIR1908” value (10 mg/ml, 24 h, vs control, probe set 11745459_a_at) was 4.20. For the same compound, the “Fold change, LPCAT3” value (10 mg/ml, 24 h, vs control, probe set 11746281_a_at) was 2.31, the “Fold change, NPC1” value (10 mg/ml, 24 h, vs control, probe set 11746723_a_at) was 4.53 and the “Fold change, LDLR” value (10 mg/ml, 24 h, vs control, probe set 11746974_a_at) was 2.99. The “Fold change, MVK” value (10 mg/ml, 24 h, vs control, probe set 11747747_a_at) was 2.02, the “Fold change, LDLR” value (10 mg/ml, 24 h, vs control, probe set 11748045_x_at) was 2.84 and the “Fold change, GBA///GBAP1” value (10 mg/ml, 24 h, vs control, probe set 11748292_a_at) was 2.57. For the same compound, the “Fold change, POR” value (10 mg/ml, 24 h, vs control, probe set 11748368_x_at) was 2.03, the “Fold change, PGS1” value (10 mg/ml, 24 h, vs control, probe set 11748428_a_at) was 2.41 and the “Fold change, DHCR24” value (10 mg/ml, 24 h, vs control, probe set 11749042_a_at) was 2.15. For the same compound, the “Fold change, EBP” value (10 mg/ml, 24 h, vs control, probe set 11749332_x_at) was 2.66, the “Fold change, PTGS1” value (10 mg/ml, 24 h, vs control, probe set 11749730_a_at) was 3.89 and the “Fold change, GBA” value (10 mg/ml, 24 h, vs control, probe set 11750975_x_at) was 2.68. The “Fold change, GBA” value (10 mg/ml, 24 h, vs control, probe set 11751085_a_at) was 3.02, the “Fold change, GBA” value (10 mg/ml, 24 h, vs control, probe set 11751086_x_at) was 2.37 and the “Fold change, GBA///GBAP1” value (10 mg/ml, 24 h, vs control, probe set 11751098_a_at) was 3.03. For the same compound, the “Fold change, GBA///GBAP1” value (10 mg/ml, 24 h, vs control, probe set 11751099_x_at) was 2.75, the “Fold change, DHCR24” value (10 mg/ml, 24 h, vs control, probe set 11751337_a_at) was 2.27 and the “Fold change, DHCR24” value (10 mg/ml, 24 h, vs control, probe set 11751338_x_at) was 2.26. The “Fold change, FADS1///MIR1908” value (10 mg/ml, 24 h, vs control, probe set 11752670_a_at) was 4.05, the “Fold change, GBA///GBAP1” value (10 mg/ml, 24 h, vs control, probe set 11753439_a_at) was 2.64 and the “Fold change, GBA///GBAP1” value (10 mg/ml, 24 h, vs control, probe set 11754819_x_at) was 2.59. The “Fold change, HMGCS1” value (10 mg/ml, 24 h, vs control, probe set 11754918_s_at) was 2.32, the “Fold change, FADS2” value (10 mg/ml, 24 h, vs control, probe set 11754939_x_at) was 2.11 and the “Fold change, LPCAT3” value (10 mg/ml, 24 h, vs control, probe set 11755123_x_at) was 2.37. The “Fold change, FADS1///MIR1908” value (10 mg/ml, 24 h, vs control, probe set 11755251_x_at) was 4.13, the “Fold change, APOD” value (10 mg/ml, 24 h, vs control, probe set 11756065_x_at) was 0.24 and the “Fold change, LPCAT3” value (10 mg/ml, 24 h, vs control, probe set 11757008_a_at) was 2.86. The “Fold change, LPCAT3” value (10 mg/ml, 24 h, vs control, probe set 11757009_x_at) was 2.10, the “Fold change, FDPS” value (10 mg/ml, 24 h, vs control, probe set 11758249_s_at) was 2.10 and the “REadj2, ABCA1” value [1] was 979.20. The “REadj2, ABHD4” value [1] was 65.43, the “REadj2, ABHD5” value [1] was 212.72 and the “REadj2, ACAT2” value [1] was 1280.94. The “REadj2, AKR1C1” value [1] was 3725.47, the “REadj2, AKR1C2” value [1] was 209.16 and the “REadj2, CH25H” value [1] was 60.89. The “REadj2, CYP51A1///LRRD1” value [1] was 1291.92, the “REadj2, DHCR7” value [1] was 695.09 and the “REadj2, HMGCR” value [1] was 395.78. For the same compound, the “REadj2, HSD17B7” value [1] was 91.10, the “REadj2, HSD17B14” value [1] was 46.74 and the “REadj2, IDI1” value [1] was 1244.81. For the same compound, the “REadj2, LPIN1” value [1] was 240.89, the “REadj2, LRP8” value [1] was 93.15 and the “REadj2, MSMO1” value [1] was 1789.72. The “REadj2, MVD” value [1] was 262.34 and the “REadj2, NEU1” value [1] was 555.40.
